Laboratory results published in publication PMC11022895 (Drug Metabolism and Disposition, 2021).
Read-outs that look alike come from different tables or passages of the source.

Legend:
CYP2E1 [1] = target: T1, CYP2E1 (Homo sapiens, UniProt P05181); test: Inhibition of rCYP2E1 in microsomes from CYP450-overexpressing HEK293 cells; type: in vitro ADME; settings: for IC50 / Ki: probe chlorzoxazone; for decrease in activity: CYP2E1
CYP2E1 [2] = target: T1, CYP2E1; test: Inhibition of CYP2E1 probe; type: in vitro ADME; settings: for IC50: probe chlorzoxazone; for Ki: probe chlorzoxazone (CYP2E1)
CYP1A2 [3] = target: T2, CYP1A2 (Homo sapiens, UniProt P05177); test: Inhibition of rCYP1A2 in microsomes from CYP450-overexpressing HEK293 cells; type: in vitro ADME; settings: probe phenacetin; for Ki: rCYP1A2 microsomes
T2 sequence (P05177 1-516): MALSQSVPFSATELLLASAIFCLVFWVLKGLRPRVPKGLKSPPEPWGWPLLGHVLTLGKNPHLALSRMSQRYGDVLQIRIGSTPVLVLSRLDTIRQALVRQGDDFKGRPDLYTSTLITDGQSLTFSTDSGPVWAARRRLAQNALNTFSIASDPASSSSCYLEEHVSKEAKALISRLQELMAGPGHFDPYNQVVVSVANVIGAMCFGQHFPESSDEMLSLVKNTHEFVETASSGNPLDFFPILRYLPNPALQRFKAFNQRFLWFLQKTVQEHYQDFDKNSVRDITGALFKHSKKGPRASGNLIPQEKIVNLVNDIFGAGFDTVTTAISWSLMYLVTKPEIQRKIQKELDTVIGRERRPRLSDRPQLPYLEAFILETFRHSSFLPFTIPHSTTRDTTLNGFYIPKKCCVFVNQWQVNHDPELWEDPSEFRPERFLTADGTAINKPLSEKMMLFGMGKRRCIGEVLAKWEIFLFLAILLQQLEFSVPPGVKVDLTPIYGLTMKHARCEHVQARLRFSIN

[4] = Unbound fraction in incubation; type: in vitro ADME; settings: human, human liver microsomes in buffer
CYP1A2 [5] = target: T2, CYP1A2; test: IC50 shift study; type: in vitro ADME
CYP1A2 [6] = target: T2, CYP1A2; test: Inhibition of CYP1A2 probe; type: in vitro ADME; settings: for IC50: probe phenacetin; for Ki: probe phenacetin (CYP1A2)
CYP2B6 [7] = target: T3, CYP2B6 (Homo sapiens, UniProt P20813); test: Inhibition of CYP2B6 probe; type: in vitro ADME; settings: for IC50: probe bupropion; for Ki: probe bupropion (CYP2B6)
T3 sequence (P20813 1-491): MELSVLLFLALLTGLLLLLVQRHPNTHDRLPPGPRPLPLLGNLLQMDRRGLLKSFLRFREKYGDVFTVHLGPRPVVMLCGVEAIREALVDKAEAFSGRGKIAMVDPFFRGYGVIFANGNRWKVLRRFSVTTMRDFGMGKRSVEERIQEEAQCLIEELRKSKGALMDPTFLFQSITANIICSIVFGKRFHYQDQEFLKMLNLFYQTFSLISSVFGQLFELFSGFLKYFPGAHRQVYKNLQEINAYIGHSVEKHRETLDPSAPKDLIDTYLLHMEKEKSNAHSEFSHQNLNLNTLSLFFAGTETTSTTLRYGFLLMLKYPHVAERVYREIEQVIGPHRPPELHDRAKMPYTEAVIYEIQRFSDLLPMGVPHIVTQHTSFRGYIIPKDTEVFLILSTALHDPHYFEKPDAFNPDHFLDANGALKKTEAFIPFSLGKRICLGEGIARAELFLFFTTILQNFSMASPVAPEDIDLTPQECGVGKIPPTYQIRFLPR

CYP2B6 [8] = target: T3, CYP2B6; test: IC50 shift study; type: in vitro ADME
CYP2C9 = CYP2C9 (Homo sapiens, UniProt P11712); settings: for inhibition of activity against S-warfarin: rCYP2C9 microsomes, probe S-warfarin (Supplemental Table 2)
Chain of CYP2C9 (P11712 whole entry): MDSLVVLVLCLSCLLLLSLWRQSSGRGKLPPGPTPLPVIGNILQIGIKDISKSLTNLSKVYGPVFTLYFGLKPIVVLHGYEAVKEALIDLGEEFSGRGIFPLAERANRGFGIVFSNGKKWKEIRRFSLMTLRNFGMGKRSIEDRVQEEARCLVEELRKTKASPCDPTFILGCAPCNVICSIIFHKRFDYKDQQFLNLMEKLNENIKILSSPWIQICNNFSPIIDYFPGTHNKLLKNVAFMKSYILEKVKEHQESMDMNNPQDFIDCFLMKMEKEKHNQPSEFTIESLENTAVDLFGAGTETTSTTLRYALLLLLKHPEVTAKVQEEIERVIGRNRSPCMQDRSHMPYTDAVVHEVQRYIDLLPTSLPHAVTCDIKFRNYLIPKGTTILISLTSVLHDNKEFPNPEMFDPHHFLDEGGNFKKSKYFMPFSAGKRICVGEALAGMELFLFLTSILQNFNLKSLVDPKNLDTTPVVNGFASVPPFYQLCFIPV

[9] = plasma, ref Manini et al., 2015, Cox et al., 2019, cited from earlier work
CYP2D6 = CYP2D6 (Homo sapiens, UniProt P10635); settings: rCYP2D6 microsomes; probe bufuralol (Supplemental Table 2)
Chain of CYP2D6 (P10635 whole entry): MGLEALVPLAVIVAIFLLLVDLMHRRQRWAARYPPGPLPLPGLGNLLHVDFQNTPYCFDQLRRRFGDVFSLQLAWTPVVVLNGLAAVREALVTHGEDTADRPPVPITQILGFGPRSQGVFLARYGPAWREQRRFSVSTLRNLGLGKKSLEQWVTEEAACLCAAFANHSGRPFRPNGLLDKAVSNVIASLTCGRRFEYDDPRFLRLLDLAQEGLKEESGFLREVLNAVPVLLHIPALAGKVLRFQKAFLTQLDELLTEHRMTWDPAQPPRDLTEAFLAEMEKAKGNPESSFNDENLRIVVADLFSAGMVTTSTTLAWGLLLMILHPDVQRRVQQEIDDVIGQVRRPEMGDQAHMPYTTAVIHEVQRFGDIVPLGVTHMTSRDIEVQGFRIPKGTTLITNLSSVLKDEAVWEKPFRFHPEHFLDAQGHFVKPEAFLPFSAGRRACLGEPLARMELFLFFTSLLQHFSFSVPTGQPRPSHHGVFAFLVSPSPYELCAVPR

CYP2E1 [10] = target: T1, CYP2E1; test: IC50 shift study; type: in vitro ADME
CYP2B6 [11] = target: T3, CYP2B6; test: Inhibition of rCYP2B6 in microsomes from CYP450-overexpressing HEK293 cells; type: in vitro ADME; settings: for IC50 / Ki: probe bupropion; for inhibition of activity against efavirenz: probe efavirenz (Supplemental Table 2)
[12] = Unbound fraction in incubation; type: in vitro ADME; settings: human, HEK293 cell microsomes in buffer
[13] = IC50,u, rCYP2E1 microsomes, corrected for fu,inc
[14] = Ki,u, rCYP2E1 microsomes, corrected for fu,inc
[15] = IC50,u, HLM, corrected for fu,inc
[16] = Ki,u, HLM, corrected for fu,inc
[17] = IC50 (+), 30-min preincubation with NADPH
[18] = IC50 (−), 30-min preincubation without NADPH
[19] = IC50,u, rCYP2B6 microsomes, corrected for fu,inc
[20] = Ki,u, rCYP2B6 microsomes, corrected for fu,inc

T1 sequence (P05181 whole entry): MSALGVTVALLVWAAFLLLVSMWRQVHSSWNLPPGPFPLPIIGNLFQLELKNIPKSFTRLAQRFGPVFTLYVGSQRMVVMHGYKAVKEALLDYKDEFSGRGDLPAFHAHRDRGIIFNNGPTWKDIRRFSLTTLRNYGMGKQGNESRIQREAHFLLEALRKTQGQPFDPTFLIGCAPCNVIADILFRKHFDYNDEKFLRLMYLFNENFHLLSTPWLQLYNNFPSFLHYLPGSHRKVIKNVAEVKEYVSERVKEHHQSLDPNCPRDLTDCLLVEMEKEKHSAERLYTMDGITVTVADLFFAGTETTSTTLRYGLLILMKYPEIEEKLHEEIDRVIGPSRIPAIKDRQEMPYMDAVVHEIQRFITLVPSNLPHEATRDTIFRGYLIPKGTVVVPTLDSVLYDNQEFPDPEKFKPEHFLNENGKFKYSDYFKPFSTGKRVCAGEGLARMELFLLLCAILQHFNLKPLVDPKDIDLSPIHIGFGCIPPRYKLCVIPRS

Compound	IC50 (CYP2E1 [1]; IC50, rCYP2E1 microsomes) [nM]	IC50 (CYP2E1 [1]; [13]) [nM]	Ki (CYP2E1 [1]; Ki, rCYP2E1 microsomes) [nM]	Ki (CYP2E1 [1]; [14]) [nM]	IC50 (CYP2E1 [2]; IC50, HLM) [nM]	IC50 (CYP2E1 [2]; [15]) [nM]	Ki (CYP2E1 [2]; Ki, HLM) [nM]	Ki (CYP2E1 [2]; [16]) [nM]	fraction unbound at 30 min, 50 µM [4]	IC50 (CYP2B6 [7]; IC50, HLM) [nM]	IC50 (CYP2B6 [7]; [15]) [nM]	Ki (CYP2B6 [7]; Ki, HLM) [nM]	Ki (CYP2B6 [7]; [16]) [nM]	IC50 (CYP2B6 [8]; [17]) [nM]	IC50 (CYP2B6 [8]; [18]) [nM]	inhibition of activity against S-warfarin (CYP2C9)	inhibition of activity against bufuralol (CYP2D6)	IC50 (CYP2E1 [10]; [17]) [nM]	IC50 (CYP2E1 [10]; [18]) [nM]	IC50 (CYP2B6 [11]; IC50, rCYP2B6 microsomes) [nM]	also measured
C=C(C)[C@@H]1CCC(C)=C[C@H]1c1c(O)cc(CCCCC)cc1O [CBD, cannabidiol]	590 ± 130	37 ± 8.1	340 ± 98	21 ± 6.1	1400 ± 250	140 ± 25	590 ± 230	58 ± 23	0.098 ± 0.023	2700 ± 2400	260 ± 240	2200 ± 530	220 ± 52	1300 ± 450	1900 ± 660	Strong inhibition	Strong inhibition	900 ± 400	1100 ± 660	2100 ± 610	IC50 (CYP1A2 [3]; IC50, rCYP1A2 microsomes): 2100 ± 930 nM; Ki (CYP1A2 [3]; Ki): 1900 ± 1200 nM; Ki (CYP1A2 [3]; Ki,u, corrected for fu,inc): 120 ± 74 nM; IC50 (CYP1A2 [5]; [17]): 1800 ± 310 nM; IC50 (CYP1A2 [5]; [18]): 2100 ± 250 nM; IC50 (CYP1A2 [6]; IC50, HLM): 6800 ± 1500 nM; IC50 (CYP1A2 [6]; [15]): 670 ± 150 nM; Ki (CYP1A2 [6]; Ki, HLM): 2100 ± 1100 nM; Ki (CYP1A2 [6]; [16]): 210 ± 110 nM; Cmax ([9]; 20-mg inhaled dose of CBD): 10.3 nM; Cmax ([9]; oral dose of 800 mg of CBD): 703 nM; IC50 (CYP2B6 [11]; [19]): 130 ± 38 nM; Ki (CYP2B6 [11]; Ki, rCYP2B6 microsomes): 1100 ± 240 nM; Ki (CYP2B6 [11]; [20]): 68 ± 15 nM; inhibition of activity against efavirenz (CYP2B6 [11]; rCYP2B6 microsomes): Strong inhibition
CCCCCc1cc(O)c2c(c1)OC(C)(C)c1ccc(C)cc1-2 [CBN, cannabinol]	920 ± 100	280 ± 30	210 ± 97	63 ± 29	1100 ± 720	570 ± 370	330 ± 91	170 ± 47	0.052 ± 0.081	1700 ± 590	880 ± 310	1700 ± 420	880 ± 220	2000 ± 700	2100 ± 830	Strong inhibition	no inhibition was observed	730 ± 210	870 ± 150	2100 ± 870	decrease in activity (CYP2E1 [1]; 1 µM cannabinoid): 77%; decrease in activity (CYP2E1 [1]; 10 µM cannabinoid): 80%; decrease in activity (CYP2C9; CYP2C9, 10 µM cannabinoid): 55%; fraction unbound at 30 min, 50 µM [12]: 0.03 ± 0.052; decrease in activity (CYP2B6 [11]; CYP2B6, 10 µM cannabinoid): 75%; IC50 (CYP2B6 [11]; [19]): 630 ± 260 nM; Ki (CYP2B6 [11]; Ki, rCYP2B6 microsomes): 620 ± 190 nM; Ki (CYP2B6 [11]; [20]): 190 ± 57 nM; inhibition of activity against efavirenz (CYP2B6 [11]; rCYP2B6 microsomes): Strong inhibition
